In patent US8283358B2, “N-sulfonamido polycyclic pyrazolyl compounds” (Elan Pharmaceuticals, Inc., priority 2008, dated 2012):

What follows are molecules tested on gamma secretase in CHO cells expressing APPSwe, NotchΔE and a Notch responsive luciferase reporter gene (SNC-204B8) (assay: SNC dual cell assay for simultaneous assay of A-beta reduction and Notch signaling (Example D)). Conditions: ratio of Notch IC50/Aβ EC50 determined as described in Example D (SNC dual cell assay).
Text: In order to facilitate testing the potency of gamma-secretase inhibitors on two substrates (APP and Notch) simultaneously, a dual-assay using a CHO cell line stably expressing APPSwe, a Notch substrate lacking the ecto-domain, and a Notch responsive Luciferase reporter gene was developed. CHOSwe cells stably over-express the Swedish FAD isoform of APP, and secrete large amounts of Aβ peptide into the conditioned media from endogenous β- and γ-secretase enzyme activity. A Notch intracellular domain (NICD) responsive reporter gene, and the constitutive gamma-secretase Notch substrate, NotchΔE, were stably introduced into CHOSwe cells in a two step process. CHOSwe cells were first stably transfected to express a NICD responsive luciferase reporter gene construct (pGL2-CBF-Luc). […] Stable cell lines expressing rat NotchΔE were then identified in the second step by including a gamma-secretase inhibitor in the selection process (to suppress Notch/NICD toxicity) following transfection of the rat Notch-ΔE construct. […] This vector drives expression of a truncated rat Notch construct corresponding to the c-terminal product following ecto-domain shedding of full length rat Notch protein. The c-terminal product is a constitutive substrate for gamma-secretase cleavage, resulting in release of the cytoplasmic Notch intracellular domain (NICD) product, which translocates to the nucleus and relieves CBF repressed genes. Subsequently, pIRES-ZEDN transfected cells were re-plated at low density in the presence of test compound, and selected with three antibiotics (G418 (0.5 mg/ml)/Hygro (1 mg/ml)/Puro (2.5 mg/ml)). The antibiotic-resistant colonies (named SNC clones for the dual-assay components: APPSwe/NotchΔE/CBF) were isolated and expanded for characterization of Aβ secretion, and NICD responsive reporter gene activity (i.e. luciferase signal in the presence versus absence of test compound). […] A typical dual-assay experiment was performed as follows: Day 1, the SNC cells were plated in 96-well assay plates in inhibitor-free media. Day 2, the cells were fed with fresh media (inhibitor free) and treated with test compounds over a concentration range 0 nM to 40,000 nM (in 10× incremental dilutions) one hour after the media change. The cells were treated with compounds overnight at 37° C. […] For the Notch signaling assay, the cells were lysed and luciferase activity from the lysate was measured using the Promega kit (see below). Day 4, Aβ-ELISA part II was conducted using 3D6-biotin/AP-streptavidin antibodies.
For `O=S(=O)(c1ccc(C(F)(F)F)cc1)N1C2c3ccccc3C1C(O)c1[nH]ncc12` (single isomer, unassigned; (+)) [(+)-endo-11-{[4-(trifloromethyl)phenyl]sulfonyl}-1,4,9,10-tetrahydro-4,9-epiminobenzo[4,5]cyclohepta[1,2-c]pyrazol-10-ol], the “Selectivity Ratio (Notch IC50/Aβ ED50)” value was “(+++) ((+++) means a ratio from about 150 to about 199)”.
With `O=C1c2[nH]ncc2C2c3c(F)cccc3C1N2S(=O)(=O)c1ccc(C(F)(F)F)nc1` (single isomer, unassigned; (-)) [(−)-5-fluoro-11-{[6-(trifluoromethyl)pyridin-3-yl]sulfonyl}-4,9-dihydro-4,9-epiminobenzo[4,5]cyclohepta[1,2-c]pyrazol-10(1H)-one] the “Selectivity Ratio (Notch IC50/Aβ ED50)” value was “(++++) ((++++) means a ratio of Notch IC50/Aβ EC50 (determined as described in Example D) of >200)”.
With `O=S(=O)(c1ccc(C(F)(F)F)nc1)N1C2Cc3[nH]ncc3C1c1cc(Br)ccc12` (single isomer, unassigned; (-)) [(−)-6-bromo-11-{[6-(trifluoromethyl)pyridin-3-yl]sulfonyl}-1,4,9,10-tetrahydro-4,9-epiminobenzo[4,5]cyclohepta[1,2-c]pyrazole] the “Selectivity Ratio (Notch IC50/Aβ ED50)” value was “(+) ((+) means a ratio from about 50 to about 99)”.
`O=C1c2[nH]ncc2C2c3cccc(F)c3C1N2S(=O)(=O)c1ccc(C(F)(F)F)nc1` (single isomer, unassigned; (-)) [(−)-8-fluoro-11-{[6-(trifluoromethyl)pyridin-3-yl]sulfonyl}-4,9-dihydro-4,9-epiminobenzo[4,5]cyclohepta[1,2-c]pyrazol-10(1H)-one] was tested, and the “Selectivity Ratio (Notch IC50/Aβ ED50)” value was “(++++) ((++++) means a ratio of Notch IC50/Aβ EC50 (determined as described in Example D) of >200)”.
